Data taken from ChEMBL document CHEMBL5154706, “Synthesis of lathyrane diterpenoid nitrogen-containing heterocyclic derivatives and evaluation of their anti-inflammatory activities” (Bioorg Med Chem, 2022).
pIC50: −log10 of the molar value. Activity calls are given as the source filed them. The calls are words filed in the database; no cut-off is given here.

How the values were obtained:
RAW264.7 [1] = assay: Antiinflammatory activity against mouse RAW264.7 cells assessed as inhibition of LPS-induced NO production preincubated for 3 hrs followed by LPS stimulation and measured after 24 hrs by Griess reagent based assay; type: functional, cell-based
RAW264.7 [2] = assay: Antiinflammatory activity against LPS-induced mouse RAW264.7 cells assessed as increase in intrinsic nitric oxide level at 0.5 ug/ml measured after 3 hrs by Griess reagent based assay; type: functional, cell-based; settings: dose 0.5 µg/ml
RAW264.7 [3] = assay: Antiinflammatory activity against mouse RAW264.7 cells assessed as inhibition of LPS-induced ROS generation at 0.25 to 2 uM preincubated for 3 hrs followed by LPS stimulation and measured after 12 hrs by DCFH-DA probe based flow cytometry; type: functional, cell-based; settings: dose 0.25-2 µM, time 15.0 hrs
RAW264.7 [4] = assay: Antiinflammatory activity against LPS-induced mouse RAW264.7 cells assessed as decrease in Keap1 expression preincubated for 3 hrs followed by LPS stimulation and measured after 24 hrs by Western blot analysis; type: functional, cell-based; settings: dose 0.25-2 µM, time 27.0 hrs, DDE = dose-dependent effect
RAW264.7 [5] = assay: Antiinflammatory activity against LPS-induced mouse RAW264.7 cells assessed as increase in Nrf2 expression preincubated for 3 hrs followed by LPS stimulation and measured after 24 hrs by Western blot analysis; type: functional, cell-based; settings: dose 0.25-2 µM, time 27.0 hrs, DDE = dose-dependent effect
[6] = target: T1, Nuclear factor erythroid 2-related factor 2 (Mus musculus) (UniProt Q60795); assay: Induction of LPS-induced Nrf2 nuclear translocation in mouse RAW264.7 cells at 2 uM preincubated for 3 hrs followed by LPS stimulation and measured after 12 hrs by immunofluorescence staining based confocal laser scanning microscopy; type: cell-based; settings: time 15.0 hrs
T1 sequence (whole entry): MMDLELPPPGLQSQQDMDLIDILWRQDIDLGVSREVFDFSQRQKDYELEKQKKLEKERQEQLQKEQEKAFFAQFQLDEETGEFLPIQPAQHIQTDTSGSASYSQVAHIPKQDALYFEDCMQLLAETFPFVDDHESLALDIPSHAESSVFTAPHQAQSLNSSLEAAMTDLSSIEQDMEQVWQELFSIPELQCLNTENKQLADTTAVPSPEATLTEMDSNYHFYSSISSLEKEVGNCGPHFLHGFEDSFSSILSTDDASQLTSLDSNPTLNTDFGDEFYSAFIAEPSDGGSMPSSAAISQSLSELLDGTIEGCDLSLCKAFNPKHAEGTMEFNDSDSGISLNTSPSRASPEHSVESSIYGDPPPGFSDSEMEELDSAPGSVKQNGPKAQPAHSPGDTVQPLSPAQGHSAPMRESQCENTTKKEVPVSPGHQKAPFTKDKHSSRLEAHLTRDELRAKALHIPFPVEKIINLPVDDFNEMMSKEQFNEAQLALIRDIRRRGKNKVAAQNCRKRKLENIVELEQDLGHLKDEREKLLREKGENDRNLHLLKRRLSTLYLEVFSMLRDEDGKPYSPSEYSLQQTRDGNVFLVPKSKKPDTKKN

RAW264.7 [7] = assay: Antiinflammatory activity against LPS-induced mouse RAW264.7 cells assessed as increase in HO-1 expression preincubated for 3 hrs followed by LPS stimulation and measured after 24 hrs by Western blot analysis; type: functional, cell-based; settings: dose 0.25-2 µM, time 27.0 hrs, DDE = dose-dependent effect
RAW264.7 [8] = assay: Antiinflammatory activity against mouse RAW264.7 cells assessed as inhibition of LPS-induced ROS generation at […] preincubated for 3 hrs followed by LPS stimulation and measured after 12 hrs by DCFH-DA probe based flow cytometry; type: functional, cell-based; settings: time 15.0 hrs

Row | SMILES | pIC50 (RAW264.7 [1]) | also measured
1 | C=C1CC[C@H]2[C@@H](/C=C(\C)C(=O)[C@@]3(O)C[C@H](C)[C@H](O)[C@@H]3[C@H]1OC(=O)c1cn(-c3ccccc3)nc1-c1ccc(Cl)cc1)C2(C)C | < 4.70 | –
2 | C=C1CC[C@H]2[C@@H](/C=C(\C)C(=O)[C@@]3(O)C[C@H](C)[C@H](O)[C@@H]3[C@H]1OC(=O)c1cnc(NC(=O)c3ccccc3)s1)C2(C)C | 5.15 | –
3 | C=C1CC[C@H]2[C@@H](/C=C(\C)C(=O)[C@@]3(O)C[C@H](C)[C@H](O)[C@@H]3[C@H]1OC(=O)CCC(=O)NCCOc1no[n+]([O-])c1S(=O)(=O)c1ccccc1)C2(C)C | 5.92 | –
4 | CCn1cc(C(=O)O[C@@H]2[C@H]3[C@@H](O)[C@@H](C)C[C@]3(O)C(=O)/C(C)=C/[C@@H]3[C@H](CC[C@]24CO4)C3(C)C)c(-c2ccc(Cl)cc2)n1 | 4.80 | –
5 | C=C1CC[C@H]2[C@@H](/C=C(\C)C(=O)[C@@]3(O)C[C@H](C)[C@H](O)[C@@H]3[C@H]1OC(=O)CCC(=O)OCCCCOc1no[n+]([O-])c1S(=O)(=O)c1ccccc1)C2(C)C | 5.81 | –
6 | CCn1cc(C(=O)O[C@@H]2[C@H]3[C@@H](O)[C@@H](C)C[C@]3(O)C(=O)/C(C)=C/[C@@H]3[C@H](CC[C@]24CO4)C3(C)C)c(-c2ccc(C)cc2)n1 | < 4.70 | –
7 | C=C1CC[C@H]2[C@@H](/C=C(\C)C(=O)[C@@]3(O)C[C@H](C)[C@H](O)[C@@H]3[C@H]1OC(=O)c1cn(CC)nc1-c1ccc(F)cc1)C2(C)C | < 4.70 | –
8 | C=C1CC[C@H]2[C@@H](/C=C(\C)C(=O)[C@@]3(O)C[C@H](C)[C@H](O)[C@@H]3[C@H]1O)C2(C)C | 4.95 | –
9 | C=C1CC[C@H]2[C@@H](/C=C(\C)C(=O)[C@@]3(O)C[C@H](C)[C@H](O)[C@@H]3[C@H]1OC(=O)c1cn(CC)nc1-c1ccc(C(F)(F)F)cc1)C2(C)C | 5.11 | –
10 | C/C1=C\[C@@H]2[C@H](CC[C@]3(CO3)[C@H](OC(=O)CCC(=O)OCC#CCOc3no[n+]([O-])c3S(=O)(=O)c3ccccc3)[C@H]3[C@@H](O)[C@@H](C)C[C@]3(O)C1=O)C2(C)C | 6.00 | –
11 | C/C1=C\[C@@H]2[C@H](CC[C@]3(CO3)[C@H](OC(=O)c3cnc(NC(=O)C4CCCCC4)s3)[C@H]3[C@@H](O)[C@@H](C)C[C@]3(O)C1=O)C2(C)C | 5.83 | –
12 | C/C1=C\[C@@H]2[C@H](CC[C@]3(CO3)[C@H](OC(=O)c3cn(-c4ccccc4)nc3-c3ccc(N(C)C)cc3)[C@H]3[C@@H](O)[C@@H](C)C[C@]3(O)C1=O)C2(C)C | < 4.70 | –
13 | C/C1=C\[C@@H]2[C@H](CC[C@]3(CO3)[C@H](OC(=O)c3cn(-c4ccccc4)nc3-c3ccc(Cl)cc3)[C@H]3[C@@H](O)[C@@H](C)C[C@]3(O)C1=O)C2(C)C | < 4.70 | –
14 | C=C1CC[C@H]2[C@@H](/C=C(\C)C(=O)[C@@]3(O)C[C@H](C)[C@H](O)[C@@H]3[C@H]1OC(=O)CCC(=O)OCCOCCOc1no[n+]([O-])c1S(=O)(=O)c1ccccc1)C2(C)C | 6.42 | Activity (RAW264.7 [2]): Active; inhibition (RAW264.7 [3]): Active; Activity (RAW264.7 [4]): Dde; Activity (RAW264.7 [5]): Dde; Activity [6]: Active; Activity (RAW264.7 [7]): Dde
15 | C=C1CC[C@H]2[C@@H](/C=C(\C)C(=O)[C@@]3(O)C[C@H](C)[C@H](O)[C@@H]3[C@H]1OC(=O)CCC(=O)OCC#CCOc1no[n+]([O-])c1S(=O)(=O)c1ccccc1)C2(C)C | 6.07 | –
16 | C=C1CC[C@H]2[C@@H](/C=C(\C)C(=O)[C@@]3(O)C[C@H](C)[C@H](O)[C@@H]3[C@H]1OC(=O)CCN1C(=O)CS/C1=N\c1ccccc1)C2(C)C | 5.08 | –
17 | C/C1=C\[C@@H]2[C@H](CC[C@]3(CO3)[C@H](OC(=O)c3cn(-c4ccccc4)nc3-c3ccc(C)cc3)[C@H]3[C@@H](O)[C@@H](C)C[C@]3(O)C1=O)C2(C)C | < 4.70 | –
18 | C=C1CC[C@H]2[C@@H](/C=C(\C)C(=O)[C@@]3(O)C[C@H](C)[C@H](O)[C@@H]3[C@H]1OC(=O)c1cnc(NC(=O)C3CCCCC3)s1)C2(C)C | 5.26 | –
19 | C/C1=C\[C@@H]2[C@H](CC[C@]3(CO3)[C@H](OC(=O)CCN3C(=O)CS/C3=N\c3ccccc3)[C@H]3[C@@H](O)[C@@H](C)C[C@]3(O)C1=O)C2(C)C | < 4.70 | –
20 | C/C1=C\[C@@H]2[C@H](CC[C@]3(CO3)[C@H](OC(=O)c3cn(-c4ccccc4)nc3-c3ccc(F)cc3)[C@H]3[C@@H](O)[C@@H](C)C[C@]3(O)C1=O)C2(C)C | 4.97 | –
21 | C=C1CC[C@H]2[C@@H](/C=C(\C)C(=O)[C@@]3(O)C[C@H](C)[C@H](O)[C@@H]3[C@H]1OC(=O)c1cnc(NC(C)=O)s1)C2(C)C | < 4.70 | –
22 | CC(=O)N[C@@H](CS)C(=O)O | – | inhibition (RAW264.7 [8]): Active
23 | C=C1CC[C@H]2[C@@H](/C=C(\C)C(=O)[C@@]3(O)C[C@H](C)[C@H](O)[C@@H]3[C@H]1OC(=O)CCC(=O)OCc1ccc(COc3no[n+]([O-])c3S(=O)(=O)c3ccccc3)cc1)C2(C)C | 5.27 | –
24 | C=C1CC[C@H]2[C@@H](/C=C(\C)C(=O)[C@@]3(O)C[C@H](C)[C@H](O)[C@@H]3[C@H]1OC(=O)c1cn(-c3ccccc3)nc1-c1ccc(N(C)C)cc1)C2(C)C | < 4.70 | –
25 | C/C1=C\[C@@H]2[C@H](CC[C@]3(CO3)[C@H](O)[C@H]3[C@@H](O)[C@@H](C)C[C@]3(O)C1=O)C2(C)C | 4.59 | –
26 | C=C1CC[C@H]2[C@@H](/C=C(\C)C(=O)[C@@]3(O)C[C@H](C)[C@H](O)[C@@H]3[C@H]1OC(=O)c1cn(-c3ccccc3)nc1-c1ccc(C(F)(F)F)cc1)C2(C)C | 4.95 | –
27 | C/C1=C\[C@@H]2[C@H](CC[C@]3(CO3)[C@H](OC(=O)CCC(=O)OCc3c(-c4ccccc4)no[n+]3[O-])[C@H]3[C@@H](O)[C@@H](C)C[C@]3(O)C1=O)C2(C)C | 5.03 | –
